From US9839642B2, “Beta-tetrazolyl-propionic acids as metallo-beta-lactamase inhibitors” (priority 2014, dated 2017)
Where two headings read alike, the source gives them in different places.

How the values were obtained:
IMP-1 = IMP-1 (Serratia marcescens, UniProt P52699); test: Enzyme activity: determination of IC50, fluorescence assay with CCF2-FA substrate; type: biochemical; details: CCF2-FA 1.25 μM, 2 hours at 25° C., read-out: IMP1 IC50
Method in brief: (§1)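 Enzyme at 1 pM (NDM-1), 2 pM (IMP-1) or 30 pM (VIM-1) was incubated with inhibitor (20 μM to 0.00063 μM) and 1.25 μM CCF2-FA in 100 mM KH2PO4 pH 7, 0.005% Tween-20, 10 μM ZnSO4 for 2 hours at 25° C. Fluorescence was read at ex 405/em 460 nm; IC50 from 4-parameter fit.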

NDM-1 = NDM-1 (Klebsiella pneumoniae, UniProt C7C422); test: as above; type: biochemical; details: CCF2-FA 1.25 μM, 2 hours at 25° C., read-out: NDM1 IC50
NDM-1, sequence (C7C422 29-270, looked up, species assumed): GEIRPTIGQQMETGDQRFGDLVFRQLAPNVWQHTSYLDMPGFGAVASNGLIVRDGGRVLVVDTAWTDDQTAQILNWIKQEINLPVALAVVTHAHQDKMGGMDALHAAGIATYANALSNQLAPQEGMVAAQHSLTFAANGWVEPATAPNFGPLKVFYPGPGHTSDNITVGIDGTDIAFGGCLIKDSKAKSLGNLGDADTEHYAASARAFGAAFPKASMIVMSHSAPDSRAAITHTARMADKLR
Method in brief: as §1

VIM-1 = VIM-1 (Pseudomonas aeruginosa, UniProt A0A0F7KYQ8); test: as above; type: biochemical; details: CCF2-FA 1.25 μM, 2 hours at 25° C., read-out: VIM1 IC50
Method in brief: as §1

[1] = tested on: Klebsiella pneumoniae expressing VIM-1 (IHMA599644); test: Antibiotic potentiation activity: synergistic concentration (MITC95) with imipenem, growth by OD600; type: cell-based
Method in brief: (§2)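 Colonies from overnight agar plates (35 °C) were suspended in saline and diluted 1:100 into 1.1× CAMHB. Inhibitor (final 200 μM to 0.195 μM) was combined with imipenem at 1 or 4 μg/ml, incubated 22–24 h at 35 °C, and absorbance read; MITC95 is the lowest inhibitor concentration giving 95% growth inhibition.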

[2] = tested on: Serratia marcescens expressing IMP-1 (CL5741); test: as above; type: cell-based
Method in brief: as §2

[3] = tested on: Escherichia coli expressing NDM-1 (CLB30016); test: as above; type: cell-based
Method in brief: as §2

[4] = K. pneumoniae IHMA599644 (VIM-1), 95% inhibition of growth
[5] = S. marcescens CL5741 (IMP-1), 95% inhibition of growth
[6] = E. coli CLB30016 (NDM-1), 95% inhibition of growth
[7] = 95% inhibition of bacterial growth, strain IHMA599644
[8] = 95% inhibition of bacterial growth, strain CL5741
[9] = 95% inhibition of bacterial growth, strain CLB30016

IMP-1, sequence (P52699 19-246, looked up, species assumed): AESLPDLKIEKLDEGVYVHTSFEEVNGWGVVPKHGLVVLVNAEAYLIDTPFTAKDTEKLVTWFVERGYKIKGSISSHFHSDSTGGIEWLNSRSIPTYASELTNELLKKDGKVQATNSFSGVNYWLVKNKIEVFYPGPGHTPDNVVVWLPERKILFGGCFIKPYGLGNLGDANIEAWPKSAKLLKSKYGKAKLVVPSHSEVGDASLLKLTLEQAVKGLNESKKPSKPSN

Structure (SMILES)	IC50 (IMP-1; IMP-1 enzyme 2 pM)	IC50 (NDM-1; NDM-1 enzyme 1 pM)	IC50 (VIM-1; VIM-1 enzyme 30 pM)	VIM1 KP599644 MITC95 [1, 4]	IMP1 SM5741 MITC95 [2, 5]	NDM1 EC30016 MITC95 [3, 6]	IC50 (IMP-1; enzyme 2 pM)	IC50 (NDM-1; enzyme 1 pM)	IC50 (VIM-1; enzyme 30 pM)	VIM1 KP599644 MITC95 [1, 7]	IMP1 SM5741 MITC95 [2, 8]	NDM1 EC30016 MITC95 [3, 9]
CCC[C@H](C(=O)O)[C@H](Cc1ccc2c(c1)CNC2)c1nnn[nH]1 [Example 437, (S)-2-((S)-2-(isoindolin-5-yl)-1-(1H-tetrazol-5-yl)ethyl)pentanoic acid compound with 2,2,2-trifluoroacetic acid (1:1)]	11400 nM	533 nM	1.73 nM	6.25 µM	150 µM	4.688 µM	–	–	–	–	–	–
CC(C)[C@H](C(=O)O)[C@H](Cc1ccc(C2CCNCC2)nc1)c1nnn[nH]1 [Example 104, (2S,3S)-2-isopropyl-4-(6-(piperidin-4-yl)pyridin-3-yl)-3-(1H-tetrazol-5-yl)butanoic acid]	–	–	–	–	–	–	7000 nM	180 nM	14 nM	18.8 µM	37 µM	3.1 µM
CCC[C@H](C(=O)O)[C@H](Cc1ccc2ncc(N)cc2c1)c1nnn[nH]1 [Example 148, 3-amino-6-((2S,3S)-3-carboxy-2-(1H-tetrazol-5-yl)hexyl)quinolin-1-ium]	–	–	–	–	–	–	400 nM	25 nM	0.94 nM	25 µM	12.5 µM	25 µM
CCC[C@H](C(=O)O)[C@H](Cc1ccc(N2CCC[C@H](N)C2)cc1)c1nn[nH]n1 [Example 230, (2S)-2-[(1S)-2-{4-[(3S)-3-aminopiperidin-1-yl]phenyl}-1-(2H-tetrazol-5-yl)ethyl]pentanoic acid]	–	–	–	–	–	–	1100 nM	300 nM	25 nM	25 µM	25 µM	31 µM
CCC[C@H](C(=O)O)[C@H](Cc1cccc(N2CCOCC2)c1)c1nn[nH]n1 [Example 365, (2S)-2-[(1S)-2-(3-morpholin-4-ylphenyl)-1-(2H-tetrazol-5-yl)ethyl]pentanoic acid]	1500 nM	82 nM	20 nM	50 µM	38 µM	38 µM	–	–	–	–	–	–
CC(C)C[C@H](C(=O)O)[C@H](Cc1ccc(-c2ccc(C(N)=O)cc2)c(F)c1)c1nn[nH]n1 [Example 456, (S)-2-((S)-2-(4′-carbamoyl-2-fluoro-[1,1′-biphenyl]-4-yl)-1-(2H-tetrazol-5-yl)ethyl)-4-methylpentanoic acid]	7.09 nM	4.35 nM	0.637 nM	37.5 µM	0.7813 µM	18.75 µM	–	–	–	–	–	–
CC(C)C[C@H](C(=O)O)[C@H](Cc1cnc(N)s1)c1nnn[nH]1 [Example 116, (2S)2-[(1S)-2-(2-amino-1,3-thiazol-5-yl)-1-(1H-tetrazol-5-yl)ethyl]-4-methylpentanoic acid]	–	–	–	–	–	–	290 nM	140 nM	4.4 nM	18.8 µM	9.4 µM	3.1 µM
CC(C)[C@H](C(=O)O)[C@H](Cc1ccc(C2CCNC2)cc1)c1nnn[nH]1 (stereo partly drawn) [Example 78, (2S,3S)-2-isopropyl-4-(4-(pyrrolidin-3-yl)phenyl)-3-(1H-tetrazol-5-yl)butanoic acid]	–	–	–	–	–	–	460 nM	23 nM	4.5 nM	6.2 µM	6.2 µM	3.1 µM
CCC[C@H](C(=O)O)[C@H](Cc1ccnc(N)c1)c1nnn[nH]1 [Example 118, (2S)-2-[(1S)-2-(2-aminopyridin-4-yl)-1-(1H-tetrazol-5-yl)ethyl]pentanoic acid]	–	–	–	–	–	–	> 20000 nM	1100 nM	10 nM	6.2 µM	200 µM	2.3 µM
